Paper PMC9888433, “Biochemical and hydrogen-deuterium exchange studies of the single nucleotide polymorphism Y649C in human platelet 12-lipoxygenase linked to a bleeding disorder” (Archives of biochemistry and biophysics, 2022)
Where a chain is given by its changes, count along the chain named. Numbers in names are those of the source.

Assays:
[1] = target: T1, human platelet 12-lipoxygenase (h12-LOX) Y649C (Homo sapiens, UniProt P18054, Y649C); experiment: steady-state Michaelis-Menten kinetics ([…] nm), kcat/KM at […] °C; LC-MS/MS products; format: biochemical
T1 construct: gene ALOX12; Nt-6His-tag recombinant enzyme expressed in Sf9
T1 sequence (P18054 1-663 Y649C): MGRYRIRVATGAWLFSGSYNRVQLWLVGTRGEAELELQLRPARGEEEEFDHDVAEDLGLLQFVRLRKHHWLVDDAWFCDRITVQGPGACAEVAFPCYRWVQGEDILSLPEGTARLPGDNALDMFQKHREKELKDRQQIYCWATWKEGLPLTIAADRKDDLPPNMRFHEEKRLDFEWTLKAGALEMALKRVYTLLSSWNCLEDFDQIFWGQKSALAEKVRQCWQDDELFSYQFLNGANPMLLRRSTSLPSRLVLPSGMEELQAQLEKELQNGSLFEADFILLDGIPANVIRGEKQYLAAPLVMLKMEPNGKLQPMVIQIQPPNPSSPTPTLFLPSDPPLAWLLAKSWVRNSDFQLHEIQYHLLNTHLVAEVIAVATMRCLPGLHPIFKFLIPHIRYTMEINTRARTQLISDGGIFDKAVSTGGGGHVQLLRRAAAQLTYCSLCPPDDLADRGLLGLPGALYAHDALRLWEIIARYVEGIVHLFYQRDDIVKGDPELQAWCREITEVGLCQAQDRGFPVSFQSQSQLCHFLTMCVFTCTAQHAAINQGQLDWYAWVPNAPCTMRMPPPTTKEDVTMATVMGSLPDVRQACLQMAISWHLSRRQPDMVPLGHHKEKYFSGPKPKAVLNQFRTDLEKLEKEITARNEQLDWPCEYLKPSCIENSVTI

[2] = target: T2, human platelet 12-lipoxygenase (h12-LOX) (Homo sapiens, UniProt P18054); experiment: as above; format: biochemical
T2 construct: gene ALOX12; Nt-6His-tag recombinant enzyme expressed in Sf9
T2 sequence (P18054 1-663): T1 sequence (P18054 1-663 Y649C) with C649Y

[3] = target: T2, human platelet 12-lipoxygenase (h12-LOX); experiment: as above; format: biochemical; remark: listed apart in the source
[4] = target: T1, human platelet 12-lipoxygenase (h12-LOX) Y649C; experiment: as above; format: biochemical; remark: listed apart in the source
[5] = target: T3, wild-type human platelet 12S-lipoxygenase (human), P18054; experiment: SEC; affinity-purified protein on Superdex 75 10/300 GL, 25 mM HEPES (pH 8), 0.3 mL/min; elution compared with gel filtration standards; settings: remark: other sources report otherwise
T3 chain: T1 sequence (P18054 1-663 Y649C) with C649Y

[6] = target: the molecule itself; experiment: as above

CC/C=C\C/C=C\C/C=C\C/C=C\C/C=C\C/C=C\CCC(=O)O [DHA, docosahexaenoic acid]
steady-state Michaelis-Menten kinetics (234 nm), kcat/KM at 22 °C; LC-MS/MS prod [1]: 960000 M⁻¹ s⁻¹ | steady-state Michaelis-Menten kinetics (234 nm), kcat/KM at 22 °C; LC-MS/MS prod [2]: 7.7e+06 M⁻¹ s⁻¹

CCCCC/C=C\C/C=C\C/C=C\C/C=C\CCCC(=O)O [AA, arachidonic acid]
kcat/KM (μM^-1sec^-1) / WT [3]: 8.7 µM⁻¹ s⁻¹ | kcat/KM (μM^-1sec^-1) / Y649C [4]: 6 µM⁻¹ s⁻¹

B1: wild-type human platelet 12S-lipoxygenase, P18054 1-663 (enzyme)
chain: T1 sequence (P18054 1-663 Y649C) with C649Y
stoichiometry N [5]: 2

B2: Y649C h12-LOX (enzyme, human, UniProt P18054 1-663, looked up)
chain: T1 sequence (P18054 1-663 Y649C)
notes: human platelet 12-lipoxygenase (h12-LOX), UniProt P18054, with the naturally occurring SNP Y649C made by site-directed mutagenesis; numbering as in UniProt P18054; Variant found in a family with a bleeding diathesis; metal content 20% by ICP-MS; also called Y649C SNP variant of h12-LOX
stoichiometry N [6]: 2
